Entries after “also recorded” stand apart in the source; their conditions may differ. Residues, ends and D or L forms follow the SMILES beside them.
Experiments:
[1] = tested on: small intestinal crypt survival and regeneration; experiment: Intestinal crypt survival after irradiation in a murine model; format: in vivo, mice; conditions: for number of surviving and regenerating crypts, pre-irradiation treatment versus treatment concurrent with radiation: oral twice daily 0.2 ml, day -5 to +4 compared with day 0 to +4, 13 Gy on day 0, scored day 4 post-irradiation
Excerpt: In this example irradiation was used to target the proliferating clonogenic cells of the crypt. Following irradiation, crypt cells can become impaired and undergo apoptosis, or programmed cell death, resulting in a reduction in the number of viable crypts, which could regenerate and heal the intestinal tissue. The more crypts that are lost the greater the level of ulceration, which can manifest as the symptoms of mucositis. […] This model of crypt cell survival is therefore often used as a surrogate for manifestation of mucositis, e.g., oral mucositis.
In this example the efficacy of orally administered Alanyl-Glutamine (Ala-Gln) and Glutamine (Gln) on small intestinal crypt survival and regeneration and maintenance of villus structure was assessed in response to radiation insult in a murine model. The crypt cells were measured at 4 days post high-dose irradiation, a time at which crypt cells affected by radiation have died and surviving cells begin to regenerate. The level of crypt cell survival at this time directly correlates to severity of ulceration and ultimately animal survival.
Ala-Gln and Gin were administered orally twice daily at a volume of 0.2 ml either pre- and post-irradiation (day −5 to day 4), or post-irradiation alone (day 0 to day 4). The animals were given doses of Ala-Gln at a concentration of 39.65 mg/ml and Gln at a concentration of 26.75 mg/ml, which contain molar equivalent doses of Gin. Vehicle control animals were administered 0.2 ml of water orally twice daily.
Animals were irradiated on day 0 at 3 pm. Irradiation was performed using an XStrahl RS320 X-ray set, operated at 300 Kv, 10 Ma. Radiation was delivered at a dose rate of 0.832 Gy/min using a single uniform dose of 13 Gy radiation. A dosimetry device was placed in the irradiation chamber to confirm the dose received. […]
For each animal in the study, ten intestinal circumferences were analyzed, providing a total of 80 circumferences per treatment group available for analysis. The number of surviving and regenerating crypts per circumference was scored and the average per group was determined.

[2] = Plasma glutamine levels after a single oral gavage dose in rats; format: in vivo, male Sprague Dawley rats; conditions: for change in plasma glutamine levels versus pre-dose: high, medium and low dose, 3 to 540 minutes after dose, UHPLC/MS/MS
Protocol: Alanyl-Glutamine and glutamine were administered as a single dose by oral gavage, with deionized water as the vehicle, into male Sprague Dawley rats. The oral gavage of Alanyl-Glutamine and glutamine was administered to different groups at three distinct levels, a high, medium and low dose. Each dose level contained molar equivalent amounts of Glutamine (doses selected to correspond to relevant human doses) so that the resulting changes in plasma Glutamine levels could be directly compared in vivo. The concurrent control group received the vehicle (deionized water) by oral gavage. The dose volume was 20 ml/kg for the oral gavage. Each treatment group consisted of three males. For pharmacokinetic evaluation, blood samples were collected via a jugular vein cannula (JVC) from 3 animals/group/time point prior to dose administration and at 3, 10, 20, 40, 60, 90, 180, 360, and 540 minutes after dose administration. Each sample was analyzed to determine plasma glutamine concentration using a qualified ultra-high performance liquid chromatography mass spectrometry method (UHPLC/MS/MS), developed expressly for the determination of glutamine levels in rat plasma. A subtractive analysis of the plasma levels was then performed, in which the data from each individual animal was subtracted from their pre-dose plasma glutamine levels. The resulting data-points were then averaged for each dosing group and graphed, and represent the change in plasma glutamine after administration of the two different compositions.

| Compound | number of surviving and regenerating crypts, pre-irradiation treatment versus treatment concurrent with radiation [1] | change in plasma glutamine levels versus pre-dose [2] | average number of crypts, Ala-Gln versus Gln ([1]; groups treated pre-irradiation (-5 to +4), molar equivalent doses of Gln, 13 Gy, scored day 4) | plasma glutamine levels, Alanyl-Glutamine versus glutamine at equivalent molar doses ([2]; each of three dose levels (high, middle, low)) |
| --- | --- | --- | --- | --- |
| NC(=O)CC[C@H](N)C(=O)O [glutamine, reference compound] | significantly more crypts | increase in glutamine levels in the plasma at all dose levels | – | – |
| C[C@H](N)C(=O)N[C@@H](CCC(N)=O)C(=O)O [Alanyl-Glutamine, L-alanyl-L-glutamine] (H-Ala-Gln-OH) | significantly more crypts | increase in glutamine levels in the plasma at all dose levels | higher average number of crypts | higher plasma glutamine levels at each dose; also recorded: increased more |
